Assay results from patent publication US7846959B2, “Raf modulators and methods of use” (Exelixis, Inc., priority 2004, dated 2010).

Tests used:
[1] = target: c-Raf (Homo sapiens, UniProt P04049); experiment: Luciferase-coupled chemiluminescence kinase assay (ATP consumption), c-Raf; type: biochemical; settings: read-out: cRaf-1 (inhibition indicated as IC50)
How it was run: (§1)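 Compound is first mixed with […] Raf enzyme in 20 mM Tris pH 7.5 containing 10 mM MgCl2, 0.03% TX-100 and 1 mM DTT (30 min, room temperature). ATP then starts a 3 h reaction, and unconsumed ATP is detected by chemiluminescence.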

[2] = target: B-Raf (Homo sapiens, UniProt P15056); experiment: Luciferase-coupled chemiluminescence kinase assay (ATP consumption), B-Raf; type: biochemical; settings: read-out: bRaf (inhibition indicated as IC50)
Chain of B-Raf (P15056 whole entry): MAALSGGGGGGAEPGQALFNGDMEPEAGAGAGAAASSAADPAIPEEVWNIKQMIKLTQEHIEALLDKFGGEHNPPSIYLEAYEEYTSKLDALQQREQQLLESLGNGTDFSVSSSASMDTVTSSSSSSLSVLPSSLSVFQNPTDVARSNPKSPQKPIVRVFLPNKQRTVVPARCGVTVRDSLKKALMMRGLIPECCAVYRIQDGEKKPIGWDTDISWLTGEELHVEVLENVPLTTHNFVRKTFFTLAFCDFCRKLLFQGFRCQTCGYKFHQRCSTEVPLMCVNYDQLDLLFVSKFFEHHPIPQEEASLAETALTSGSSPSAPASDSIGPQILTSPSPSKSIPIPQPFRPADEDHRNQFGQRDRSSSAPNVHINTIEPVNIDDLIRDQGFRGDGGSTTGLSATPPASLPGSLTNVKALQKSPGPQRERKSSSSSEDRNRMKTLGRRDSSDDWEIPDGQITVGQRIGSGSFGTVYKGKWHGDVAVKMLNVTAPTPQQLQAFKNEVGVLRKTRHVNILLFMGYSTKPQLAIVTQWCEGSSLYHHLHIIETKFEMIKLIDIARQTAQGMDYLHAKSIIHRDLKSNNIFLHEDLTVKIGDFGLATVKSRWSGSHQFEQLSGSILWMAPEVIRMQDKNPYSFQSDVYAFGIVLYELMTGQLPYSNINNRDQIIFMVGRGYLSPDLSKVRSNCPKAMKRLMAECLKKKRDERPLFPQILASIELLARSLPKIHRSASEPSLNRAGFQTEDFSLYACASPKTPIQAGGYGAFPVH
How it was run: as §1

Chain of c-Raf (P04049 whole entry): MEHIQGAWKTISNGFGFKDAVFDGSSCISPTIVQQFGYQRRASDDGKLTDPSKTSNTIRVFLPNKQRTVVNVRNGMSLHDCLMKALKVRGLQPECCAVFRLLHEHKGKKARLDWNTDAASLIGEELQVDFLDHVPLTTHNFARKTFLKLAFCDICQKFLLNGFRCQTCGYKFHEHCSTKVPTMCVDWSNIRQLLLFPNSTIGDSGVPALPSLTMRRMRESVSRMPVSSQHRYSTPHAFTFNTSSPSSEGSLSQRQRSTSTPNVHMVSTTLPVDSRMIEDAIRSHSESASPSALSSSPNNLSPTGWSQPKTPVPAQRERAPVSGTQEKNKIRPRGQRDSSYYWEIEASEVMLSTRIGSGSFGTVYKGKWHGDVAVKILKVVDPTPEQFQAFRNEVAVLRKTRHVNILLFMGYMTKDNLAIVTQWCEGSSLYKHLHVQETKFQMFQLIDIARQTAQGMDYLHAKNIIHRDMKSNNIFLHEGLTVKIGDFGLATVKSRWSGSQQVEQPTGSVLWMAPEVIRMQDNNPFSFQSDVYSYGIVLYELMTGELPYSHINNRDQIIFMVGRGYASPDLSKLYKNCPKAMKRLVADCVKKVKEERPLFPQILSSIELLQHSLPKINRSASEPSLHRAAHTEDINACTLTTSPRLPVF

Row | IC50 [1] [nM] | IC50 [2] [nM] | Structure (SMILES)
1 | < 100 | < 100 | O=C(Nc1nc2ccc(C3(O)c4ccccc4C(=O)N3c3cccc(Cl)c3F)cc2[nH]1)OCC1CC1 (centres unmarked) [Entry 334, cyclopropylmethyl {6-[2-(3-chloro-2-fluorophenyl)-1-hydroxy-3-oxo-2,3-dihydro-1H-isoindol-1-yl]-1H-benzimidazole-2-yl}carbamate]
2 | < 100 | < 100 | O=C(Nc1nc2cc(C3(O)c4ccccc4C(=O)N3c3cccc(Cl)c3F)ccc2[nH]1)C1CC1 (centres unmarked) [Entry 335, N-{5-[2-(3-chloro-2-fluorophenyl)-1-hydroxy-3-oxo-2,3-dihydro-1H-isoindol-1-yl]-1H-benzimidazol-2-yl}cyclopropanecarboxamide]
3 | < 100 | < 100 | COCCOC(=O)Nc1nc2cc(C3(O)c4ccccc4C(=O)N3c3cccc(Cl)c3F)ccc2[nH]1 (centres unmarked) [Entry 336, 2-(methyloxy)ethyl {5-[2-(3-chloro-2-fluorophenyl)-1-hydroxy-3-oxo-2,3-dihydro-1H-isoindol-1-yl]-1H-benzimidazol-2-yl}carbamate]
4 | < 100 | < 100 | O=C(Nc1nc2ccc(C3(O)c4ccccc4C(=O)N3c3cccc(Cl)c3F)cc2[nH]1)OCC1CCCO1 (centres unmarked) [Entry 337, tetrahydrofuran-2-ylmethyl {6-[2-(3-chloro-2-fluorophenyl)-1-hydroxy-3-oxo-2,3-dihydro-1H-isoindol-1-yl]-1H-benzimidazol-2-yl}carbamate]
5 | < 100 | < 100 | O=C(Cc1cccs1)Nc1nc2cc(C3(O)c4ccccc4C(=O)N3c3cccc(Cl)c3F)ccc2[nH]1 (centres unmarked) [Entry 338, N-{5-[2-(3-chloro-2-fluorophenyl)-1-hydroxy-3-oxo-2,3-dihydro-1H-isoindol-1-yl]-1H-benzimidazol-2-yl}-2-(2-thienyl)acetamide]
6 | < 100 | < 100 | COC(=O)Nc1nc2ccc(C3(O)c4c(F)ccc(F)c4C(=O)N3c3cccc(Cl)c3F)cc2[nH]1 (centres unmarked) [Entry 339, methyl {6-[2-(3-chloro-2-fluorophenyl)-4,7-difluoro-1-hydroxy-3-oxo-2,3-dihydro-1H-isoindol-1-yl]-1H-benzimidazol-2-yl}carbamate]
7 | < 100 | < 100 | CCOC(=O)Nc1nc2ccc(C3(O)c4ccccc4C(=O)N3c3cccc(Cl)c3F)cc2[nH]1 (centres unmarked) [Entry 340, ethyl {6-[2-(3-chloro-2-fluorophenyl)-1-hydroxy-3-oxo-2,3-dihydro-1H-isoindol-1-yl]-1H-benzimidazol-2-yl}carbamate]
8 | < 100 | < 100 | O=C(Nc1nc2ccc(C3(O)c4ccccc4C(=O)N3c3cccc(Cl)c3F)cc2[nH]1)OCCF (centres unmarked) [Entry 341, 2-fluoroethyl {6-[2-(3-chloro-2-fluorophenyl)-1-hydroxy-3-oxo-2,3-dihydro-1H-isoindol-1-yl]-1H-benzimidazol-2-yl}carbamate]
9 | 100 to 1000 | 100 to 1000 | COC(=O)Nc1nc2cc(C3(O)c4ccccc4C(=O)N3c3ccccc3Oc3ccccc3)ccc2[nH]1 (centres unmarked) [Entry 342, methyl (5-{1-hydroxy-3-oxo-2-[2-(phenyloxy)phenyl]-2,3-dihydro-1H-isoindol-1-yl}-1H-benzimidazol-2-yl)carbamate]
10 | < 100 | < 100 | CCN(CC)C(=O)CCCC(=O)Nc1nc2cc(C3(O)c4ccccc4C(=O)N3c3cccc(Cl)c3F)ccc2[nH]1 (centres unmarked) [Entry 343, N′-{5-[2-(3-chloro-2-fluorophenyl)-1-hydroxy-3-oxo-2,3-dihydro-1H-isoindol-1-yl]-1H-benzimidazol-2-yl}-N,N-diethylpentanediamide]
11 | < 100 | < 100 | O=C(Nc1nc2ccc(C3(O)c4ccccc4C(=O)N3c3cccc(Cl)c3F)cc2[nH]1)OCC1CCC1 (centres unmarked) [Entry 344, cyclobutylmethyl {6-[2-(3-chloro-2-fluorophenyl)-1-hydroxy-3-oxo-2,3-dihydro-1H-isoindol-1-yl]-1H-benzimidazol-2-yl}carbamate]
12 | < 100 | < 100 | O=C(Nc1nc2ccc(C3(O)c4ccccc4C(=O)N3c3cccc(Cl)c3F)cc2[nH]1)OCC(F)(F)F (centres unmarked) [Entry 345, 2,2,2-trifluoroethyl {6-[2-(3-chloro-2-fluorophenyl)-1-hydroxy-3-oxo-2,3-dihydro-1H-isoindol-1-yl]-1H-benzimidazol-2-yl}carbamate]
13 | < 100 | < 100 | COC(=O)Nc1nc2cc(C3(O)c4ccccc4C(=O)N3c3cccc(C(C)(C)C)c3)ccc2[nH]1 (centres unmarked) [Entry 346, methyl (5-{2-[3-(1,1-dimethylethyl)phenyl]-1-hydroxy-3-oxo-2,3-dihydro-1H-isoindol-1-yl}-1H-benzimidazol-2-yl)carbamate]
14 | < 100 | < 100 | COC(=O)Nc1nc2ccc(C3(O)c4c(F)cccc4C(=O)N3c3cccc(Cl)c3F)cc2[nH]1 (centres unmarked) [Entry 347, methyl {6-[2-(3-chloro-2-fluorophenyl)-7-fluoro-1-hydroxy-3-oxo-2,3-dihydro-1H-isoindol-1-yl]-1H-benzimidazol-2-yl}carbamate]
15 | 1000 to 10000 | 1000 to 10000 | O=C1c2ccccc2C(O)(c2ccc3[nH]c(Nc4ccccc4)nc3c2)N1c1cccc(Cl)c1F (centres unmarked) [Entry 348, 2-(3-chloro-2-fluorophenyl)-3-hydroxy-3-[2-(phenylamino)-1H-benzimidazol-5-yl]-2,3-dihydro-1H-isoindol-1-one]
16 | 1000 to 10000 | 1000 to 10000 | COC(=O)Nc1nc2ccc(C3(O)c4c(Cl)ccc(Cl)c4C(=O)N3c3cccc(Cl)c3F)cc2[nH]1 (centres unmarked) [Entry 349, methyl {6-[4,7-dichloro-2-(3-chloro-2-fluorophenyl)-1-hydroxy-3-oxo-2,3-dihydro-1H-isoindol-1-yl]-1H-benzimidazol-2-yl}carbamate]
17 | 1000 to 10000 | 1000 to 10000 | CCOC(=O)Nc1nc2cc(C(=O)c3ccccc3C(=O)OCc3ccccc3)ccc2o1 [Entry 350, phenylmethyl 2-[(2-{[(ethyloxy)carbonyl]amino}-1,3-benzoxazol-5-yl)carbonyl]benzoate]
18 | 100 to 1000 | < 100 | C#Cc1cc(Cl)cc(N2C(=O)c3ccccc3C2(O)c2ccc3[nH]c(NC(=O)OC)nc3c2)c1C (centres unmarked) [Entry 351, methyl {5-[2-(5-chloro-3-ethynyl-2-methylphenyl)-1-hydroxy-3-oxo-2,3-dihydro-1H-isoindol-1-yl]-1H-benzimidazol-2-yl}carbamate]
19 | < 100 | < 100 | C#Cc1cc(N2C(=O)c3ccccc3C2(O)c2ccc3[nH]c(NC(=O)OC)nc3c2)c(F)cc1F (centres unmarked) [Entry 352, methyl {5-[2-(5-ethynyl-2,4-difluorophenyl)-1-hydroxy-3-oxo-2,3-dihydro-1H-isoindol-1-yl]-1H-benzimidazol-2-yl}carbamate]
20 | < 100 | < 100 | C#Cc1c(F)ccc(N2C(=O)c3ccccc3C2(O)c2ccc3[nH]c(NC(=O)OC)nc3c2)c1F (centres unmarked) [Entry 353, methyl {5-[2-(3-ethynyl-2,4-difluorophenyl)-1-hydroxy-3-oxo-2,3-dihydro-1H-isoindol-1-yl]-1H-benzimidazol-2-yl}carbamate]
21 | < 100 | < 100 | O=C1c2ccccc2C(O)(c2ccc3[nH]c(Nc4ncccn4)nc3c2)N1c1cccc(Cl)c1F (centres unmarked) [Entry 354, 2-(3-chloro-2-fluorophenyl)-3-hydroxy-3-[2-(pyrimidin-2-ylamino)-1H-benzimidazol-5-yl]-2,3-dihydro-1H-isoindol-1-one]
22 | < 100 | < 100 | C#Cc1cccc(N2C(=O)c3c(F)ccc(F)c3C2(O)c2ccc3[nH]c(NC(=O)OC)nc3c2)c1F (centres unmarked) [Entry 355, methyl {5-[2-(3-ethynyl-2-fluorophenyl)-4,7-difluoro-1-hydroxy-3-oxo-2,3-dihydro-1H-isoindol-1-yl]-1H-benzimidazol-2-yl}carbamate]
23 | < 100 | < 100 | O=C1c2ccccc2C(O)(c2ccc3[nH]c(Nc4nccs4)nc3c2)N1c1cccc(Cl)c1F (centres unmarked) [Entry 356, 2-(3-chloro-2-fluorophenyl)-3-hydroxy-3-[2-(1,3-thiazol-2-ylamino)-1H-benzimidazol-5-yl]-2,3-dihydro-1H-isoindol-1-one]
24 | 100 to 1000 | < 100 | CCOC(=O)Nc1nc2cc(C3(O)c4ccccc4C(=O)N3c3cccc(Cl)c3F)ccc2o1 (centres unmarked) [Entry 357, ethyl {5-[2-(3-chloro-2-fluorophenyl)-1-hydroxy-3-oxo-2,3-dihydro-1H-isoindol-1-yl]-1,3-benzoxazol-2-yl}carbamate]
25 | 100 to 1000 | 100 to 1000 | COC(=O)Nc1nc2cc(C3(O)c4ccccc4C(=O)N3c3cc(Cl)cc(I)c3C)ccc2[nH]1 (centres unmarked) [Entry 358, methyl {5-[2-(5-chloro-3-iodo-2-methylphenyl)-1-hydroxy-3-oxo-2,3-dihydro-1H-isoindol-1-yl]-1H-benzimidazol-2-yl}carbamate]
26 | < 100 | < 100 | CCc1cccc(N2C(=O)c3ccccc3C2(O)c2ccc3[nH]c(NC(=O)OC)nc3c2)c1F (centres unmarked) [Entry 359, methyl {5-[2-(3-ethyl-2-fluorophenyl)-1-hydroxy-3-oxo-2,3-dihydro-1H-isoindol-1-yl]-1H-benzimidazol-2-yl}carbamate]
27 | < 100 | < 100 | C#Cc1ccc(C)c(N2C(=O)c3ccccc3C2(O)c2ccc3[nH]c(NC(=O)OC)nc3c2)c1 (centres unmarked) [Entry 360, methyl {5-[2-(5-ethynyl-2-methylphenyl)-1-hydroxy-3-oxo-2,3-dihydro-1H-isoindol-1-yl]-1H-benzimidazol-2-yl}carbamate]
28 | < 100 | < 100 | O=C1c2ccccc2C(O)(c2ccc3[nH]c(Nc4cnccn4)nc3c2)N1c1cccc(Cl)c1F (centres unmarked) [Entry 361, 2-(3-chloro-2-fluorophenyl)-3-hydroxy-3-[2-(pyrazin-2-ylamino)-1H-benzimidazol-5-yl]-2,3-dihydro-1H-isoindol-1-one]
